Assay results taken from a compilation of properties of binary mixtures (doi:10.1016/j.molliq.2018.02.064).

Assay: xn = mol fraction of the nth substance listed
Conditions: 100 kPa

CCCC[n+]1ccn(C)c1.O=S(=O)([N-]S(=O)(=O)C(F)(F)F)C(F)(F)F + CCO
viscosity [mPa·s]
Conditions	x1 = 0.2129	x1 = 0.2688	x1 = 0.4215	x1 = 0.4606	x1 = 0.5784	x1 = 0.6609	x1 = 0.747	x1 = 0.8264	x1 = 1
307.85 K	–	–	–	–	–	15.81	19.9	23.3	34.7
308.15 K	3.69	–	8.06	9.01	13.11	–	19.7	23	34.3
308.45 K	–	4.5	7.99	8.94	13	–	–	22.8	33.9
308.76 K	3.64	4.47	–	8.86	–	15.39	–	22.5	33.5
309.06 K	3.61	–	7.86	8.79	12.77	15.25	19.2	22.3	33.1
309.36 K	3.59	4.4	7.8	8.72	12.66	15.11	19	22.1	32.8
309.67 K	3.56	4.37	–	8.65	12.55	14.98	18.8	21.8	–
309.97 K	3.54	4.34	7.67	–	12.44	14.85	–	21.6	32.1
310.27 K	3.52	4.31	7.61	8.51	12.33	14.71	18.4	21.4	31.7
310.58 K	3.49	4.28	7.55	8.44	12.22	14.58	–	21.1	31.4
310.88 K	–	4.25	7.49	8.38	–	14.45	18.09	–	31
311.18 K	3.44	4.22	7.43	–	12.01	14.33	17.92	20.7	30.7
311.48 K	–	4.19	7.37	8.24	11.91	14.2	17.75	20.5	30.4
311.79 K	3.39	4.16	7.31	–	–	14.07	–	–	30.1
312.09 K	3.37	–	7.25	8.11	11.7	–	17.42	20.1	29.7
312.39 K	3.35	–	7.19	–	11.6	13.83	17.26	19.8	29.4
312.7 K	3.32	–	7.13	7.98	11.5	13.7	17.1	19.6	29.1
313 K	3.3	4.04	7.08	7.92	11.4	13.58	–	19.4	–
313.3 K	3.28	4.02	–	7.86	11.3	13.46	16.78	19.2	28.5
313.61 K	3.26	3.99	6.96	7.8	11.21	13.34	16.62	–	28.2
313.91 K	3.23	3.96	6.91	7.74	11.11	–	–	18.8	27.9
314.21 K	–	–	6.86	7.68	11.02	13.11	–	18.6	27.6
314.52 K	3.19	3.9	6.8	7.62	–	13	–	18.5	27.3
314.82 K	3.17	3.88	6.75	7.56	10.83	–	16.02	18.3	27.1
315.12 K	3.14	3.85	6.7	7.5	10.74	12.77	15.87	–	26.8
315.42 K	3.12	–	6.64	7.44	10.64	–	15.72	17.9	26.5
315.73 K	3.1	3.79	–	7.38	–	–	15.58	17.7	26.2
316.03 K	3.08	–	6.54	7.33	10.46	12.44	15.43	17.5	26
316.33 K	3.06	3.74	6.49	–	10.38	12.33	15.29	17.4	25.7
316.64 K	3.03	3.71	–	7.21	–	12.22	15.15	17.2	–
316.94 K	3.01	3.69	6.39	7.16	10.2	–	15.01	–	25.2
317.24 K	2.99	3.66	6.34	7.1	10.11	–	14.88	16.9	24.9
317.55 K	2.97	–	–	7.05	–	11.91	14.74	16.7	24.7
317.85 K	2.95	3.61	–	6.99	9.94	–	14.6	16.5	–
318.15 K	2.93	–	6.2	–	9.86	11.7	14.47	16.3	24.2
318.45 K	2.91	3.56	6.15	6.89	9.78	11.6	14.34	–	23.9
318.76 K	2.89	3.53	6.1	–	–	11.5	14.21	16.02	–
319.06 K	–	3.51	6.06	6.78	9.61	11.4	14.08	15.86	23.5
319.36 K	2.85	3.48	6.01	6.73	9.53	11.3	13.95	15.71	23.2
319.67 K	2.83	3.46	–	6.68	9.45	11.2	–	15.55	23
319.97 K	2.81	3.43	5.92	–	–	11.1	13.7	15.4	22.8
320.27 K	2.79	3.41	5.88	6.58	–	11.01	–	–	22.6
320.58 K	2.77	3.38	–	6.53	9.22	10.91	13.45	15.09	22.3
320.88 K	2.75	3.36	5.79	6.48	9.14	10.82	13.33	14.95	22.1
321.18 K	2.73	3.34	5.74	–	9.06	–	13.21	14.8	21.9
321.48 K	2.71	3.31	5.7	6.38	8.99	10.63	–	14.66	21.7
321.79 K	2.69	–	5.66	–	8.91	10.54	12.97	14.51	21.5
322.09 K	–	3.27	–	6.29	8.84	10.45	12.86	14.37	–
322.39 K	2.65	3.24	5.58	6.24	8.76	10.36	–	14.23	21.1
322.7 K	2.63	3.22	5.53	6.19	8.69	10.27	–	14.09	20.9
323 K	2.62	3.2	5.49	–	8.62	10.18	12.51	13.96	20.7
